The term IC50 denotes the midpoint of a concentration-inhibition curve.

Structures are written as SMILES.

The values that follow come from patent US20210196676A1, “TREATMENT OF VIRAL INFECTIONS AND VIRALLY ASSOCIATED LESIONS WITH SEQUITERPENE LACTONES” (The Board of Regents of the University of Texas System, priority 2018, published 2021).

For series [1], the system named is warts. The conditions noted are these: human, in vivo; cited from earlier work.
The subject of series [2] is HPV. The conditions noted are these: after three months of treatment, confirmed by smears and biopsies; cited from earlier work.
For series [3], the system named is ankle wart. Kind of series: Topical treatment of a large ankle wart, case of a person. It is filed as in vivo, human.
Series [4] can be described thus: in vitro. The conditions noted are these: human.
Series [5] is described as follows: in vitro. The conditions noted are these: human. This is another data set of the same source.

Take `O=[N+]([O-])[O-].[Ag+]` [silver nitrate, Silver nitrate]: the improvement in warts in series [1] was 26%.

As for `Cc1cccc(C)c1OCC(=O)N[C@@H](Cc1ccccc1)[C@@H](O)C[C@H](Cc1ccccc1)NC(=O)[C@H](C(C)C)N1CCCNC1=O` [Lopinavir], the “women with high-grade disease having normal cervical conditions” value in series [2] was 82.6%.

In the case of `CC(=O)Oc1ccccc1C(=O)O` [crushed aspirin, aspirin], the “wart after treatment was stopped” value in series [3] (treatment stopped) is reported as “regrew”. Also, the wart size result in series [3] (under a commercial band aid for several weeks) is on record as “slightly reduced in size”.

As for `C=C1C(=O)O[C@@H]2C[C@@H](C)[C@@H]3C=CC(=O)[C@@]3(C)[C@@H](O)[C@H]12` (racemic) [H. tox, (±)-4-Hydroxy-4a,8-dimethyl-3,3a,4a,7a,8,9,9a-octahydroazuleno[6,5-b]furan-2,5-dione], the IC50 in series [4] and in series [5] was about 1 µM each time.
